These are literature values, as cited in US20150018389A1, “METHOD FOR TREATING PARKINSONS DISEASE AND OTHER NEUROLOGICAL DISEASES” (priority 2013, published 2015).

Molecules are shown by their SMILES.

Data set [1] concerns tumor necrosis factor alpha. Conditions: erythema nodosum leprosum, treatment with thalidomide (Sampaio et al. 1992).
Assay in data set [2]: not given
The source holds these as a separate data set.

Assay in data set [3]: not given
This is another data set of the same source.

Data set [4] relates to tumor necrosis factor alpha production by stimulated monocytes. As to conditions: stimulated monocytes (Sampaio et al. 1991).
The conditions of data set [5]: serum vs in vitro pH 7.4.
Data set [6] relates to HIV. Conditions: infected cell lines induced with tumor necrosis factor alpha (Schauf et al. 1992).
Data set [7] concerns HIV. As to conditions: peripheral blood mononuclear cells of HIV-infected patients.
For data set [8], the system named is CD4 lymphocyte counts. As to conditions: erythema nodosum leprosum (Moncada et al. 1985).

Consider `O=C1CCC(N2C(=O)c3ccccc3C2=O)C(=O)N1` (racemic) [Thalidomide, N-phthalidoglutarimide], for which the “side effects in humans” value is “somnolence, teratogenicity and, upon extended administration, peripheral neuropathy”. In addition, the “elevated tumor necrosis factor alpha levels” value in data set [1] was “reduced”. For the same compound, the absorption result in data set [2] (humans, orally administered) is listed as “poorly absorbed”. The plasma protein binding entry in [2] (in vivo) is reported as “highly bound to plasma proteins”. In addition, the “toxicity in a series of animal studies” value in data set [3] is “has not been toxic”. Moreover, the “tumor necrosis factor alpha production” value in [4] is “inhibit”. In data set [5], the “hydrolytic cleavage in serum compared with in vitro at pH 7.4” value is “much slower”. Also, in [6], the HIV expression entry was “inhibited”. The HIV production result in data set [7] is on record as “reduce”. For the same compound, the “previously suppressed CD4 lymphocyte counts” value in data set [8] is listed as “increases”.
